Reference: patent US20260357349A1, “METHODS OF IDENTIFYING AND TREATING CANCER” (Agency for Science, Technology and Research, priority 2022, published 2026)
“Also recorded” adds a separate entry of the source.

How the values were obtained:
[1] = test system: NF-κB target genes (786-O cells); experiment: RT-qPCR of NF-κB target genes after NF-κB inhibitor, 786-O; type: cell-based, human; conditions: 0.006 μM bortezomib or 0.6 µM Bay 11-7085, 24 hours
Procedure: (§1) Colony formation of parental (WT) or PBRM1 knockout (KO) 786-O cells expressing shRNA against non-targeting control (NC), RELA, or NFKB1 cultured with a) 10% or b) 2% serum. c) Gene expression changes of NF-κB target genes in 786-O cells treated with 0.006 μM bortezomib (BTZ) or 0.6 µM Bay 11-7085 for 24 hours (n=3 technical replicates). * p-value<0.05 (two-sided t-test). […] A positive log fold change refers to gain in bortezomib treatment over DMSO. g) Colony formation of 786-O isogenic cells and h) NCC432 isogenic cells treated with bortezomib for a week. Tumor formation of isogenic 786-O cells (i) and NCC432 cells (j) treated with PBS control or 0.5 mg/kg bortezomib (BTZ) in NSG mice. (n=10 tumors per group for 786-O, and n=16 tumors for NCC432 PBS EV group and 12 tumors for NCC432 PBS PBRM1 group and 14 tumors for both NCC432 EV and PBRM1 BTZ groups). Data are presented as mean values+/−SEM. k) Model for the study.

786-O cells = experiment: Colony formation, 786-O isogenic cells; type: cell-based, human; conditions: 786-O with and without PBRM1, vs DMSO
Procedure: as §1
Data are presented as median+/−25%. […] Data are presented as mean values+/−SD. e) Tornado plots of RELA and SMARCA4 ChIP-seq signals in parental 786-0 or PBRM1-KO 786-O cells treated with DMSO or 0.005 μM bortezomib for 9 hours. f) Kaplan-Meier curves of NSG mice bearing 786-O isogenic cells treated with PBRM1 control or 0.5 mg/kg bortezomib (WT: n=10 PBS arm, median survival=39 days; n=10 bortezomib arm, median survival=52 days, HR=4.1, p=3E-6, log rank test; KO: n=10 PBS arm, median survival=35 days, n=10 bortezomib arm, median survival=66 days, HR=4.1, p=3E-6, log rank test). g) Kaplan-Meier curves of NSG mice bearing NCC432 isogenic cells treated with PBRM1 control or 0.5 mg/kg bortezomib (EV: n=16 PBS arm, median survival=42 days; n=14 bortezomib arm, median survival=49 days, HR=2.5, p=0.0009, log rank test; PBRM1: n=12 PBS arm, median survival=55 days; n=14 bortezomib arm, median survival=58 days, HR=1.2, p=0.5, log rank test). h) 786-O PBRM1 WT or KO cells were screened against the high-specific SGC epigenetic probe collection and cell viability was measured by colony formation after 1 week of treatment relative to DMSO control. […]

IκBα / NF-κB = conditions: cited from earlier work
[2] = test system: NF-κB target genes (786-O cells); experiment: RT-qPCR of NF-κB target genes after SMARCA2/4 ATPase inhibitor, 786-O; type: cell-based, human
[3] = test system: NF-κB target genes (NCC432 cells); experiment: RT-qPCR of NF-κB target genes after SMARCA2/4 ATPase inhibitor, NCC432; type: cell-based, human
Excerpt: Data are presented as mean values+/−SD. b) Colony formation of 786-O cells expressing shRNA against non-targeting control (NTC) or ARID2. c) Colony formation of 786-O cells expressing shRNA against non-targeting control (NTC) or SMARCA4. d) Immunoblotting and e) colony formation of NCC432 cells expressing shRNA against non-targeting control (NTC) or ARID2 (n=3 biological replicates). Data are presented as mean values+/−SD. * p<0.05, ** p<0.01 (two-sided t-test). f) Immunoblotting and g) colony formation of NCC432 cells expressing shRNA against non-targeting control (NTC) or SMARCA4 (n=4 biological replicates). Data are presented as mean values+/−SD. *** p<0.001, **** p<0.0001 (two-sided t-test). In vivo tumor formation in h) 786-O parental cells and i) 786-0 PBRM1 KO cells expressing shRNA against non-targeting control (NTC), ARID2 (clone 1) or SMARCA4 (clone 2) (n=10 tumors per group). Data are presented as mean values+/−SEM for tumor growth and mean values+/−SD for tumor weight. **** p<0.0001 (two-sided t-test).
It was previously shown that inhibiting the SMARCA4 ATPAse subunit abolished chromatin accessibility and binding of SMARCA4-dependent transcription factors. To understand whether the activation of pathway requires the ATPase activity of SMARCA4, 786-O and NCC432 cells were treated with SMARCA2/4 ATPase inhibitor. […]

[4] = test system: NF-κB pathway (786-O cells); experiment: RNA-seq gene set enrichment of direct NF-κB targets after SMARCA2/4 ATPase inhibitor, 786-O; type: cell-based, human; conditions: 10 μM, 24 hours
Procedure: Data are presented as mean values+/−SD. b, c) 786-O parental and PBRM1 KO cells were treated with 10 μM of SMARCA2/4 ATPase inhibitor for 24 hours and transcriptomic changes were evaluated by RNA-seq (n=2 biological replicates). […] P values were calculated by Kolmogorov-Smirnov test and q value was adjusted for multiple hypotheses testing using gene permutation. d) 786-O cells expressing dox inducible shRNA against ARID2 were treated with 1 μg/ml doxycycline for 2 days and the gene expression of NF-κB targets were quantified by RT-qPCR (n=3 technical replicates representative of 2 biological replicates). Data are presented as mean values+/−SD. * p<0.05, ** p<0.01 (two-sided t-test). e) Single cell clones of either PBRM1 or ARID2 knockout were created in 769-P cells. […] P values were calculated by Kolmogorov-Smirnov test and q values were adjusted for multiple hypotheses testing using gene permutation. […]
Total RNA was extracted using the Qiagen RNeasy Mini kit. […] Sequencing was performed on an Illumina HiSeq4000 sequencer with the paired-end 150 bp read option.
RNA-Seq Pathway Analysis RNA-seq data were mapped to hg19 (h117d5) using STAR, with GENCODE annotation (gencode.v19.annotation.gtf) and recommended settings from STAR manual. Gene expression levels were quantified with STAR. […]

[5] = test system: RELA occupancy at NF-κB target genes; experiment: ChIP-qPCR of RELA occupancy after SMARCA2/4 ATPase inhibitor, 786-O; type: cell-based, human; conditions: PB1-deficient setting, 24 hours
Procedure: For each protein of interest, approximately 2×10^7 cells were cross-linked with 1% formaldehyde for 10 min at room temperature, and stopped by adding glycine to a final concentration of 0.2M. Chromatin was extracted and sonicated to ~500 bp (Vibra cell, SONICS). The following antibodies were used for chromatin immunoprecipitation: PBRM1 (Bethyl A301-591A Lot: 3-4), SMARCA4 (AbCAM ab110641 Lot: GR3208604-8), ARID2 (Bethyl A302-230A Lot: 2), BRD7 (Bethyl A302-304A Lot: 1), ARID1A (Santa Cruz sc-32761 Lot: #H2217), SMARCC1 (Santa Cruz sc-32763 Lot: #K1617), NFkB p65/RELA (Santa Cruz sc-372 Lot: #J1915; Diagenode C15310256, Lot: 24468; Invitrogen 51-0500, Lot: WG331314), BRD9 (Bethyl A303-781A, Lot2), RNA POL II (Merck Millipore 05-623 Lot: 2958013), H3K27ac (AbCAM ab4729-100 Lot: 741806), H3K14ac (AbCAM ab52946 Lot: GR3252548-5), H3K4me3 (Merck Millipore 07-473 Lot: 2930138), H3K4me1 (AbCAM ab8895 Lot: GR312093-1), H3K27me3 (Millipore 07-449 Lot: JBC1924326), H3K9me3 (Millipore 07-442 Lot: DAM1411287). The total volume of immunoprecipitation was 2 ml and the amount of antibody used was 20 μg. The input DNA was precleared with protein G Dynabeads (LifeTechnologies) for 2 hours at 4 °C and then incubated with antibodies overnight at 4 °C. […] Each library was sequenced to an average depth of 30-50 million reads on HiSeq2000, HiSeq4000 or Novaseq 6000.

RCC = conditions: best responder to the combined therapy; cited from earlier work

Compound: CC(C)(C)c1ccc(S(=O)(=O)/C=C/C#N)cc1 [Bay 11-7085]
- suppressing the expression of NF-κB target genes [1]: not Bay 11-7085 was effective
- reducing colony formation (786-O cells): not Bay 11-7085 was effective
- effect on IκBα phosphorylation (IκBα / NF-κB; TNFα-induced vs basal): inhibits TNFα-induced but not basal IκBα phosphorylation
- effect on nuclear translocation of NF-κB (IκBα / NF-κB; TNFα-induced): prevents TNFα-induced nuclear translocation of NF-κB

Compound: O=C(Nc1cc(C(F)F)ns1)Nc1cc(F)ncc1CO [SMARCA2/4 ATPase inhibitor]
- downregulation of BCL2A1 and TNF, PB1-deficient vs proficient ([2]; 786-O): greater downregulation in the PB1-deficient setting compared to the proficient setting
- downregulation of NF-κB target genes ([2]; 786-O parental and PB1 KO, 10, 20 and 50 μM, 3 days): dose-dependent downregulation of NF-κB target genes
- sensitivity of PDLIM4 and APOL3 expression ([2]; both PB1-proficient and deficient setting): exquisitely sensitive
- downregulation of BCL2A1 and TNF, PB1-deficient vs proficient ([3]; NCC432): greater downregulation in the PB1-deficient setting compared to the proficient setting
- downregulation of NF-κB target genes ([3]; NCC432 empty vector or PBRM1, 3 days): dose-dependent downregulation of NF-κB target genes
- gene set enrichment of direct NF-κB targets, PB1-deficient vs parental [4]: greater effect of NF-κB downregulation in PB1-deficient cells compared to parental 786-O cells; also recorded: greater downregulation of NF-κB pathway in PBRM1-deficient cells compared to parental 786-O cells
- regions probed with significantly decreased RELA occupancy [5]: 5/6

Compound: bevacizumab: bevacizumab therapy
- prior therapy outcome (RCC): failed
